Laboratory results reported in PubChem BioAssay AID330 (DTP/NCI, 2004).
“And” between values parts separate entries of the source, which are not always exact repeats. Identical values can stand only once. Inconclusive results and toxic doses are left out. How the source made its calls: active means survival T/C of 150% or more; inactive means T/C below 125% in these data.

Tested on: P388 leukemia ip, CD2F1 mice, survival T/C
Test: NCI In Vivo Anticancer Drug Screen. Data for tumor model P388 Leukemia (intraperitoneal) in CD2F1 (CDF1) mice
Settings: endpoint: median survival time, higher = longer survival
Method in brief: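 Mice carrying the transplanted tumor received test compound or vehicle. Survival was recorded in each group, and the value is the treated-group measurement divided by that of the vehicle-treated control group.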

[1] = dose: 25.0 mg/kg/injection, schedule: Q01DX009 (ip), vehicle: saline with Tween-80
[2] = dose: 50.0 mg/kg/injection, schedule: Q01DX009 (ip), vehicle: saline with Tween-80
[3] = dose: 100.0 mg/kg/injection, schedule: Q01DX009 (ip), vehicle: saline with Tween-80
[4] = dose: 50.0 mg/kg/injection, schedule: Q01DX005 (ip), vehicle: Klucel (hydroxypropylcellulose) (HPC)
[5] = dose: 100.0 mg/kg/injection, schedule: Q01DX005 (ip), vehicle: Klucel (hydroxypropylcellulose) (HPC)
[6] = dose: 200.0 mg/kg/injection, schedule: Q01DX005 (ip), vehicle: Klucel (hydroxypropylcellulose) (HPC)
[7] = dose: 200.0 mg/kg/injection, schedule: Q01DX009 (ip), vehicle: saline with Tween-80
[8] = dose: 50.0 mg/kg/injection, schedule: Q01DX009 (ip), vehicle: Klucel (hydroxypropylcellulose) (HPC)
[9] = dose: 100.0 mg/kg/injection, schedule: Q01DX009 (ip), vehicle: Klucel (hydroxypropylcellulose) (HPC)
[10] = dose: 50.0 mg/kg/injection, schedule: Q01DX009 (ip), vehicle: saline
[11] = dose: 100.0 mg/kg/injection, schedule: Q01DX009 (ip), vehicle: saline
[12] = dose: 200.0 mg/kg/injection, schedule: Q01DX009 (ip), vehicle: saline

Measured: T/C

CCCCCCCCCCCC(=O)OCCN1CCN(CCCN2c3ccccc3Sc3ccc(C(F)(F)F)cc32)CC1
inactive: dose: 0.78 mg/kg/injection, schedule: Q01DX009 (ip), vehicle: saline with Tween-80 108 % of control | dose: 1.56 mg/kg/injection, schedule: Q01DX009 (ip), vehicle: saline with Tween-80 104 % of control | dose: 3.12 mg/kg/injection, schedule: Q01DX009 (ip), vehicle: saline with Tween-80 105 % of control and 93 % of control | dose: 6.25 mg/kg/injection, schedule: Q01DX009 (ip), vehicle: saline with Tween-80 107 % of control | dose: 12.5 mg/kg/injection, schedule: Q01DX009 (ip), vehicle: saline with Tween-80 101 % of control and 107 % of control | [1] 106 % of control | [2] 114 % of control | [3] 97 % of control

COc1ccc(C(C)c2cc3c(cc2OC)OCO3)cc1C (stereo not drawn)
inactive: dose: 25.0 mg/kg/injection, schedule: Q01DX005 (ip), vehicle: Klucel (hydroxypropylcellulose) (HPC) 104 % of control and 105 % of control | [4] 100 % of control and 109 % of control and 120 % of control | [5] 98 % of control and 105 % of control and 111 % of control | [6] 100 % of control and 110 % of control and 120 % of control | dose: 400.0 mg/kg/injection, schedule: Q01DX005 (ip), vehicle: Klucel (hydroxypropylcellulose) (HPC) 100 % of control

CNC(=O)OCCC(OC(=O)NC)C1CCC2C3CCC4CC(OC(=O)NC)CCC4(C)C3CCC12C (stereo not drawn)
inactive: dose: 100.0 mg/kg/injection, schedule: Q01DX001 (ip), vehicle: Klucel (hydroxypropylcellulose) (HPC) 108 % of control | dose: 200.0 mg/kg/injection, schedule: Q01DX001 (ip), vehicle: Klucel (hydroxypropylcellulose) (HPC) 108 % of control | dose: 400.0 mg/kg/injection, schedule: Q01DX001 (ip), vehicle: Klucel (hydroxypropylcellulose) (HPC) 101 % of control

Cc1o[nH]c(=O)c1C
inactive: [3] 100 % of control | [7] 100 % of control | dose: 400.0 mg/kg/injection, schedule: Q01DX009 (ip), vehicle: saline with Tween-80 100 % of control

CCC12CCCN3CCC4(c5cccc(O)c5NC4CC1)C32 (stereo not drawn)
inactive: dose: 60.0 mg/kg/injection, schedule: Q01DX005 (ip), vehicle: saline 101 % of control | dose: 120.0 mg/kg/injection, schedule: Q01DX005 (ip), vehicle: saline 94 % of control | dose: 240.0 mg/kg/injection, schedule: Q01DX005 (ip), vehicle: saline 101 % of control

NC(=S)n1nc(-c2ccccc2)c(N=Nc2ccccc2[N+](=O)[O-])c1-c1ccccc1
inactive: dose: 100.0 mg/kg/injection, schedule: Q04DX002 (ip), vehicle: Klucel (hydroxypropylcellulose) (HPC) 99 % of control | dose: 200.0 mg/kg/injection, schedule: Q04DX002 (ip), vehicle: Klucel (hydroxypropylcellulose) (HPC) 110 % of control | dose: 400.0 mg/kg/injection, schedule: Q04DX002 (ip), vehicle: Klucel (hydroxypropylcellulose) (HPC) 105 % of control

CCCCCCCCCC(C)(C)NP(=S)(OCC)OCC (tested in a mixture with another compound)
inactive: [8] 105 % of control | [9] 105 % of control | dose: 200.0 mg/kg/injection, schedule: Q01DX009 (ip), vehicle: Klucel (hydroxypropylcellulose) (HPC) 100 % of control

CN(C(=S=O)c1ccccc1)c1ccccc1
inactive: [10] 109 % of control | [11] 104 % of control | [12] 106 % of control

COc1cc(/C=N\NC(=O)C(C)SC(C)C(=O)N/N=C/c2cc(OC)c(OC)c(OC)c2)cc(OC)c1OC (stereo not drawn)
inactive: [4] 93 % of control | [5] 88 % of control | [6] 90 % of control

CC1=C(C)C(C#N)N(C)CC1 (stereo not drawn)
inactive: dose: 3.75 mg/kg/injection, schedule: Q01DX005 (ip), vehicle: Klucel (hydroxypropylcellulose) (HPC) 102 % of control | dose: 7.5 mg/kg/injection, schedule: Q01DX005 (ip), vehicle: Klucel (hydroxypropylcellulose) (HPC) 100 % of control

Cc1cc(=O)oc2c(C)c3oc4c(c3cc12)CN(C)CC4
inactive: [4] 100 % of control | [5] 117 % of control

CCOCC(=O)c1ccc2c(O)c3c(c(O)c2c1)C(=O)c1cccc(OC)c1C3=O
inactive: dose: 1.56 mg/kg/injection, schedule: Q01DX009 (ip), vehicle: other 105 % of control | dose: 3.13 mg/kg/injection, schedule: Q01DX009 (ip), vehicle: other 104 % of control | dose: 6.25 mg/kg/injection, schedule: Q01DX009 (ip), vehicle: other 103 % of control | dose: 12.5 mg/kg/injection, schedule: Q01DX009 (ip), vehicle: other 106 % of control | dose: 25.0 mg/kg/injection, schedule: Q01DX009 (ip), vehicle: other 108 % of control

CC(C)c1cc(O)c2c(c1O)C1CC3C(C)(C)CCC[C@]23C(=O)O1 (stereo partly drawn)
inactive: dose: 4.88 mg/kg/injection, schedule: Q01DX005 (ip), vehicle: Klucel (hydroxypropylcellulose) (HPC) 95 % of control | dose: 9.75 mg/kg/injection, schedule: Q01DX005 (ip), vehicle: Klucel (hydroxypropylcellulose) (HPC) 100 % of control | dose: 19.5 mg/kg/injection, schedule: Q01DX005 (ip), vehicle: Klucel (hydroxypropylcellulose) (HPC) 100 % of control | dose: 39.0 mg/kg/injection, schedule: Q01DX005 (ip), vehicle: Klucel (hydroxypropylcellulose) (HPC) 96 % of control

Cc1cccc(=O)n1C
inactive: [10] 102 % of control | [11] 102 % of control | [12] 100 % of control

O=C(CC(Sc1ccccc1)c1cccc([N+](=O)[O-])c1)c1ccccc1 (stereo not drawn)
inactive: [8] 93 % of control | [9] 95 % of control

C=C1C(=O)OC2C1C(OC(=O)/C(C)=C/C)CC(O)(CCl)C1C(OC(C)=O)C=C(C)C21O (stereo not drawn)
inactive: [1] 117 % of control | [2] 109 % of control | [3] 114 % of control | [7] 108 % of control

COC(=O)c1nc2c(c(=O)n(C)c(=O)n2C)n1C
inactive: dose: 60.0 mg/kg/injection, schedule: Q01DX005 (ip), vehicle: saline with Tween-80 94 % of control | dose: 120.0 mg/kg/injection, schedule: Q01DX005 (ip), vehicle: saline with Tween-80 96 % of control | dose: 240.0 mg/kg/injection, schedule: Q01DX005 (ip), vehicle: saline with Tween-80 89 % of control

CC(C)=CCC(O)C1=CC(=O)c2c(O)ccc(O)c2C1=O (stereo not drawn)
inactive: dose: 0.5 mg/kg/injection, schedule: Q01DX009 (ip), vehicle: saline with Tween-80 102 % of control | dose: 1.0 mg/kg/injection, schedule: Q01DX009 (ip), vehicle: saline with Tween-80 110 % of control | dose: 1.25 mg/kg/injection, schedule: Q01DX009 (ip), vehicle: Klucel (hydroxypropylcellulose) (HPC) 107 % of control and 109 % of control and 110 % of control | dose: 2.0 mg/kg/injection, schedule: Q01DX009 (ip), vehicle: saline with Tween-80 110 % of control | dose: 2.5 mg/kg/injection, schedule: Q01DX009 (ip), vehicle: Klucel (hydroxypropylcellulose) (HPC) 107 % of control and 108 % of control and 112 % of control | dose: 2.5 mg/kg/injection, schedule: Q01DX009 (ip), vehicle: saline with Tween-80 102 % of control | dose: 5.0 mg/kg/injection, schedule: Q01DX009 (ip), vehicle: Klucel (hydroxypropylcellulose) (HPC) 117 % of control and 120 % of control | dose: 5.0 mg/kg/injection, schedule: Q01DX009 (ip), vehicle: saline with Tween-80 108 % of control | dose: 10.0 mg/kg/injection, schedule: Q01DX009 (ip), vehicle: Klucel (hydroxypropylcellulose) (HPC) 110 % of control and 120 % of control | dose: 15.0 mg/kg/injection, schedule: Q01DX009 (ip), vehicle: saline with Tween-80 100 % of control | dose: 15.0 mg/kg/injection, schedule: Q04DX003 (ip), vehicle: saline with Tween-80 100 % of control | dose: 30.0 mg/kg/injection, schedule: Q01DX009 (ip), vehicle: saline with Tween-80 90 % of control | dose: 30.0 mg/kg/injection, schedule: Q04DX003 (ip), vehicle: saline with Tween-80 109 % of control | dose: 50.0 mg/kg/injection, schedule: Q01DX005 (ip), vehicle: saline with Tween-80 97 % of control | dose: 100.0 mg/kg/injection, schedule: Q01DX005 (ip), vehicle: saline with Tween-80 91 % of control | dose: 200.0 mg/kg/injection, schedule: Q01DX005 (ip), vehicle: saline with Tween-80 99 % of control

Cn1c(/C=[N+](/C)[O-])cnc1[N+](=O)[O-]
inactive: dose: 50.0 mg/kg/injection, schedule: Q01DX009 (ip), vehicle: suspension in saline 102 % of control | dose: 100.0 mg/kg/injection, schedule: Q01DX009 (ip), vehicle: suspension in saline 103 % of control | dose: 200.0 mg/kg/injection, schedule: Q01DX009 (ip), vehicle: suspension in saline 108 % of control
